PMC6120666 (The EMBO Journal, 2018)

Assays:
Test in all cases: Drug affinity chromatography with c-ponatinib and LC-MS/MS (ponatinib interactome)
Type in all cases: binding
[1] = target: T1, proteins of U2OS cell lysate (Homo sapiens, UniProt P23528); conditions: CFL1, Cofilin-1
T1 construct: Proteins enriched by c-ponatinib from U2OS cell lysate; endogenous in cells; host or cells: U2OS cell lysate
Procedure, shortened: (§1)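 U2OS cell lysate in NP-40 lysis buffer (2 mg protein per pulldown) was incubated with amine-derivatized NHS beads for 2 h at 4 °C. Bound proteins were washed, eluted with 100 mM formic acid, reduced, alkylated and trypsin-digested, then identified by nano-UPLC–MS/MS on Orbitrap instruments with a 60 min gradient.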

[2] = target: T2, proteins of U2OS cell lysate (Homo sapiens, UniProt P28070); conditions: PSMB4, Proteasome subunit beta type-4
T2 construct: Proteins enriched by c-ponatinib from U2OS cell lysate; endogenous in cells; host or cells: U2OS cell lysate
Procedure, shortened: as §1

[3] = target: T3, proteins of U2OS cell lysate (Homo sapiens, UniProt Q13561); conditions: DCTN2, Dynactin subunit 2
T3 construct: Proteins enriched by c-ponatinib from U2OS cell lysate; endogenous in cells; host or cells: U2OS cell lysate
T3 sequence (Q13561 whole entry): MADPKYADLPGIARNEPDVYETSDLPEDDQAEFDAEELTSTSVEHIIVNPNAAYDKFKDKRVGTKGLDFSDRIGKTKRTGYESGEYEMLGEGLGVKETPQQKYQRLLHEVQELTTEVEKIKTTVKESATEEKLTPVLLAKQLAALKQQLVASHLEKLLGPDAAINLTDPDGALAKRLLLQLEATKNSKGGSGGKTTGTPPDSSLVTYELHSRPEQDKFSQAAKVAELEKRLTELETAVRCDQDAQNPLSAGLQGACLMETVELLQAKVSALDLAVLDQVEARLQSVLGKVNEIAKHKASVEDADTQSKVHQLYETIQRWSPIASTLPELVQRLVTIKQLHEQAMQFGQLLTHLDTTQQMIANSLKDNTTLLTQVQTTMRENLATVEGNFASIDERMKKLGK
Procedure, shortened: as §1

[4] = target: T4, proteins of U2OS cell lysate (Homo sapiens, UniProt P46783); conditions: RPS10;RPS10P5, 40S ribosomal protein S10
T4 construct: Proteins enriched by c-ponatinib from U2OS cell lysate; endogenous in cells; host or cells: U2OS cell lysate
Procedure, shortened: as §1

[5] = target: T5, proteins of U2OS cell lysate (Homo sapiens, UniProt P20700); conditions: LMNB1, Lamin-B1
T5 construct: Proteins enriched by c-ponatinib from U2OS cell lysate; endogenous in cells; host or cells: U2OS cell lysate
T5 sequence (P20700 whole entry): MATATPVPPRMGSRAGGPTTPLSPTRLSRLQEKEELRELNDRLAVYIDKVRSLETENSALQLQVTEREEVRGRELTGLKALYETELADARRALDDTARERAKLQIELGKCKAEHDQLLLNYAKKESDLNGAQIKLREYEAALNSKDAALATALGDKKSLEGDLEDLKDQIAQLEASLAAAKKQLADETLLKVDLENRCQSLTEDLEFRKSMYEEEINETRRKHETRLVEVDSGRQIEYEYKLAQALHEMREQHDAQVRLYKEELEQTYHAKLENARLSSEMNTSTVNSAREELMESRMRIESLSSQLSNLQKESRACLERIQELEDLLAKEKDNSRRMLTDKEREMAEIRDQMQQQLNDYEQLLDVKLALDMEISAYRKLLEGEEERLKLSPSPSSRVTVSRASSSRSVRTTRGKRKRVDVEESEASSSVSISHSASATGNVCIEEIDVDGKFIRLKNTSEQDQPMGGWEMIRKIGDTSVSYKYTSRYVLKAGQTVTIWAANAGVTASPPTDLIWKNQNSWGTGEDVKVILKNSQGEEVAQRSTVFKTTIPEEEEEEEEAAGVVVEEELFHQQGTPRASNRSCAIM
Procedure, shortened: as §1

[6] = target: T6, proteins of U2OS cell lysate (Homo sapiens, UniProt O60664); conditions: PLIN3, Perilipin-3
T6 construct: Proteins enriched by c-ponatinib from U2OS cell lysate; endogenous in cells; host or cells: U2OS cell lysate
T6 sequence (O60664 whole entry): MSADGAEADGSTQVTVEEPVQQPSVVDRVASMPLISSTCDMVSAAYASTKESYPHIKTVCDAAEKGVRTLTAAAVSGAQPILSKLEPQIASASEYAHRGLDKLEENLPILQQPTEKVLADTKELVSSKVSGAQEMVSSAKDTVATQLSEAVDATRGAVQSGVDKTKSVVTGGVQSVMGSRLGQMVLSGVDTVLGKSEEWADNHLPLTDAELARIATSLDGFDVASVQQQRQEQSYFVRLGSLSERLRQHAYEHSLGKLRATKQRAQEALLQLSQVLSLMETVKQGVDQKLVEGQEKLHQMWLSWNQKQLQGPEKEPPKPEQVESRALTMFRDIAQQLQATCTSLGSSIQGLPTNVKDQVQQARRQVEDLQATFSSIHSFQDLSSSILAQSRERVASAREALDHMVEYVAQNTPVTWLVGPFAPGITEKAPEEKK
Procedure, shortened: as §1

[7] = target: T7, proteins of U2OS cell lysate (Homo sapiens, UniProt P39019); conditions: RPS19, 40S ribosomal protein S19
T7 construct: Proteins enriched by c-ponatinib from U2OS cell lysate; endogenous in cells; host or cells: U2OS cell lysate
Procedure, shortened: as §1

[8] = target: T8, proteins of U2OS cell lysate (Homo sapiens, UniProt Q15149); conditions: PLEC, Plectin
T8 construct: Proteins enriched by c-ponatinib from U2OS cell lysate; endogenous in cells; host or cells: U2OS cell lysate
Procedure, shortened: as §1

[9] = target: T9, proteins of U2OS cell lysate (Homo sapiens, UniProt P31947); conditions: SFN, 14-3-3 protein sigma
T9 construct: Proteins enriched by c-ponatinib from U2OS cell lysate; endogenous in cells; host or cells: U2OS cell lysate
T9 sequence (P31947 whole entry): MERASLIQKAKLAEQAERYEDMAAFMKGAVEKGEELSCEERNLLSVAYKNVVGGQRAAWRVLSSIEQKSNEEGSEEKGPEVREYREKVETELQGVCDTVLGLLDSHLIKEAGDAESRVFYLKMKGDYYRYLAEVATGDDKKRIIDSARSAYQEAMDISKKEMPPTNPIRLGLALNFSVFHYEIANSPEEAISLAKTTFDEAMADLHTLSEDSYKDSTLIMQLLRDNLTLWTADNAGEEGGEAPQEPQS
Procedure, shortened: as §1

[10] = target: T10, proteins of U2OS cell lysate (Homo sapiens, UniProt P56381); conditions: ATP5E;ATP5EP2, ATP synthase subunit epsilon, mitochondrial
T10 construct: Proteins enriched by c-ponatinib from U2OS cell lysate; endogenous in cells; host or cells: U2OS cell lysate
T10 sequence (P56381 whole entry): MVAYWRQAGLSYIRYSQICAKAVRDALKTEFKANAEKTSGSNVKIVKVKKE
Procedure, shortened: as §1

[11] = target: T11, proteins of U2OS cell lysate (Homo sapiens, UniProt P0DMV9); conditions: HSPA1B, Heat shock 70 kDa protein 1B
T11 construct: Proteins enriched by c-ponatinib from U2OS cell lysate; endogenous in cells; host or cells: U2OS cell lysate
T11 sequence (P0DMV9 whole entry): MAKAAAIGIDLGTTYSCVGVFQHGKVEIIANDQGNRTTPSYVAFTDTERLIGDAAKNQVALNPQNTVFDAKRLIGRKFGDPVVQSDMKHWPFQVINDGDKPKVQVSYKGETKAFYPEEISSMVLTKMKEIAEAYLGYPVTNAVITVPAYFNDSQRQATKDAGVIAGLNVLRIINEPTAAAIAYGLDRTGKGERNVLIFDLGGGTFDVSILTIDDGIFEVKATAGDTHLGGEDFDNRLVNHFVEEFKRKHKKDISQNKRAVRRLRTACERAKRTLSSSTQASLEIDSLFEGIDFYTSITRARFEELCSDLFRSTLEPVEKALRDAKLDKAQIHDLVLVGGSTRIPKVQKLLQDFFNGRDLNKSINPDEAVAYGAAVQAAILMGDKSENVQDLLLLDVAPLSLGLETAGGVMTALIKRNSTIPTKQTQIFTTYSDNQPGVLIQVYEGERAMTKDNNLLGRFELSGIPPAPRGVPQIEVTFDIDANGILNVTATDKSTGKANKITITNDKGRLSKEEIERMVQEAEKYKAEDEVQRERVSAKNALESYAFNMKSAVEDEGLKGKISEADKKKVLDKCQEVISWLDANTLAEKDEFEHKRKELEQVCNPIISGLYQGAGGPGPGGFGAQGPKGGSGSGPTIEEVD
Procedure, shortened: as §1

[12] = target: T12, proteins of U2OS cell lysate (Homo sapiens, UniProt P00403); conditions: MT-CO2, Cytochrome c oxidase subunit 2
T12 construct: Proteins enriched by c-ponatinib from U2OS cell lysate; endogenous in cells; host or cells: U2OS cell lysate
T12 sequence (P00403 whole entry): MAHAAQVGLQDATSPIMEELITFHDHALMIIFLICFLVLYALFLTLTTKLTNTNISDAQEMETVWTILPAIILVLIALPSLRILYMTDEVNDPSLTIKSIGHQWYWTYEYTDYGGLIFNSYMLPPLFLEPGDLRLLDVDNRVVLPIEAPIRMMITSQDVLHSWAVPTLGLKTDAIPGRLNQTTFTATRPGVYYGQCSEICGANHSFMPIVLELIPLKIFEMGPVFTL
Procedure, shortened: as §1

[13] = target: T13, proteins of U2OS cell lysate (Homo sapiens, UniProt O00264); conditions: PGRMC1, Membrane-associated progesterone receptor component 1
T13 construct: Proteins enriched by c-ponatinib from U2OS cell lysate; endogenous in cells; host or cells: U2OS cell lysate
T13 sequence (O00264 whole entry): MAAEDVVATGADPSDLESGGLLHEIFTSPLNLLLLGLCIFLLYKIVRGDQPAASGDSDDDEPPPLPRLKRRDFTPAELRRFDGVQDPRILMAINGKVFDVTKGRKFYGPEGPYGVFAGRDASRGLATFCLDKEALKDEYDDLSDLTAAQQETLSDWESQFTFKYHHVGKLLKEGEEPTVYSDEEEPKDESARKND
Procedure, shortened: as §1

[14] = target: T14, proteins of U2OS cell lysate (Homo sapiens, UniProt P46060); conditions: RANGAP1, Ran GTPase-activating protein 1
T14 construct: Proteins enriched by c-ponatinib from U2OS cell lysate; endogenous in cells; host or cells: U2OS cell lysate
T14 sequence (P46060 whole entry): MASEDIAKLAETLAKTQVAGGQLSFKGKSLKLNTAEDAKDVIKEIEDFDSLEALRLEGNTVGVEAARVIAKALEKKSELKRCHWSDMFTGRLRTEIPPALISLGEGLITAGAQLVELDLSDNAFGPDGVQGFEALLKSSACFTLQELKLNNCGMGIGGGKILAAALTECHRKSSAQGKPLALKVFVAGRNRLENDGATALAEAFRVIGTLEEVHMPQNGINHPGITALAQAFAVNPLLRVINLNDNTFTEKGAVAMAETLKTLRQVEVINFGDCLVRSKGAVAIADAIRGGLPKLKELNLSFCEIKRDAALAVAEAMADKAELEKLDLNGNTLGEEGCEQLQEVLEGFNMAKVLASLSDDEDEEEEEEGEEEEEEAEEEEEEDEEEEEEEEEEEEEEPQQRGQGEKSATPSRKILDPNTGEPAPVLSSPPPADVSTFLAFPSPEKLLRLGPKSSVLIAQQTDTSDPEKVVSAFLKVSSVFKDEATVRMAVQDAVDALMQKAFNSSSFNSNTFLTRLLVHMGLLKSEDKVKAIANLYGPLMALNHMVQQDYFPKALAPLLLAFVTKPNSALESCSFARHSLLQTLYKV
Procedure, shortened: as §1

[15] = target: T15, proteins of U2OS cell lysate (Homo sapiens, UniProt P35998); conditions: PSMC2, 26S protease regulatory subunit 7
T15 construct: Proteins enriched by c-ponatinib from U2OS cell lysate; endogenous in cells; host or cells: U2OS cell lysate
Procedure, shortened: as §1

[16] = target: T16, proteins of U2OS cell lysate (Homo sapiens, UniProt O94921); conditions: CDK14, Cyclin-dependent kinase 14
T16 construct: Proteins enriched by c-ponatinib from U2OS cell lysate; endogenous in cells; host or cells: U2OS cell lysate
T16 sequence (O94921 whole entry): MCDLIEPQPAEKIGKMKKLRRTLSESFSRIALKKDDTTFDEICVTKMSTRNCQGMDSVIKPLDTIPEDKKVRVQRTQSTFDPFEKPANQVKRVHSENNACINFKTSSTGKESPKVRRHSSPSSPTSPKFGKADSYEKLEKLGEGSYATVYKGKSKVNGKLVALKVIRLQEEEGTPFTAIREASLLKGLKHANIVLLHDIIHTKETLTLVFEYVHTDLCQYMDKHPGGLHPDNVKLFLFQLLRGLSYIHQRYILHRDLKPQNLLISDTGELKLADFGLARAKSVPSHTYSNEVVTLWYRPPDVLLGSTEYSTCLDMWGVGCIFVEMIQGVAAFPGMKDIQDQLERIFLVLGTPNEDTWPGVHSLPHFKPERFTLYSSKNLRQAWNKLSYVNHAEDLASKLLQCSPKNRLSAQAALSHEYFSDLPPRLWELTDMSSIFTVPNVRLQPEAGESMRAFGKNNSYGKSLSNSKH
Procedure, shortened: as §1

[17] = target: T17, proteins of U2OS cell lysate (Homo sapiens, UniProt P05388); conditions: RPLP0;RPLP0P6, 60S acidic ribosomal protein P0
T17 construct: Proteins enriched by c-ponatinib from U2OS cell lysate; endogenous in cells; host or cells: U2OS cell lysate
Procedure, shortened: as §1

[18] = target: T18, proteins of U2OS cell lysate (Homo sapiens, UniProt P62714); conditions: PPP2CB, Serine/threonine-protein phosphatase 2A catalytic subunit beta isoform
T18 construct: Proteins enriched by c-ponatinib from U2OS cell lysate; endogenous in cells; host or cells: U2OS cell lysate
T18 sequence (P62714 whole entry, canonical isoform): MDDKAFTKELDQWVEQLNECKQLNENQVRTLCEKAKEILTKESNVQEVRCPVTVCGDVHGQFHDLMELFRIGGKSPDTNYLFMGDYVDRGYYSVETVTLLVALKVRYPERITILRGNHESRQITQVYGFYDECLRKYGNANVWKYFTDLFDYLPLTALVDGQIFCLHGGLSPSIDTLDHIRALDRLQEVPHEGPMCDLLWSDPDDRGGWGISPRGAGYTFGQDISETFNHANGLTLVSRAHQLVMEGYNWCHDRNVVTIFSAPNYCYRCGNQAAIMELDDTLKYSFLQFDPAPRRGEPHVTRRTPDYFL
Procedure, shortened: as §1

[19] = target: T19, proteins of U2OS cell lysate (Homo sapiens, UniProt Q13418); conditions: ILK, Integrin-linked protein kinase
T19 construct: Proteins enriched by c-ponatinib from U2OS cell lysate; endogenous in cells; host or cells: U2OS cell lysate
T19 sequence (Q13418 whole entry): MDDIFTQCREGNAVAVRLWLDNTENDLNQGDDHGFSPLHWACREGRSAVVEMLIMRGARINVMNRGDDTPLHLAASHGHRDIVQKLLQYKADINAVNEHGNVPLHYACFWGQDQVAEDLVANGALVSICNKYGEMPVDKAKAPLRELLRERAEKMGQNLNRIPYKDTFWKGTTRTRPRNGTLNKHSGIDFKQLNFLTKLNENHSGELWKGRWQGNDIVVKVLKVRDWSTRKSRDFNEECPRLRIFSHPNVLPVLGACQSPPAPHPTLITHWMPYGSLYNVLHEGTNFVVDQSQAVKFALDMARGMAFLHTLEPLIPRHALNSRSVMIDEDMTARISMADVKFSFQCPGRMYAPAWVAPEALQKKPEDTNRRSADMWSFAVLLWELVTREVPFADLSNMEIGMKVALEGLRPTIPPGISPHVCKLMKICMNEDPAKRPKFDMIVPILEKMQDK
Procedure, shortened: as §1

T1 sequence (P23528 whole entry): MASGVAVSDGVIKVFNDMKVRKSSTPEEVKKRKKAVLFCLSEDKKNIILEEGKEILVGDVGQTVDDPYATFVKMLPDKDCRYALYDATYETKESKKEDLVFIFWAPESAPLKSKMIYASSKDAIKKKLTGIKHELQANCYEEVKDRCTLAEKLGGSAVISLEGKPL

Structure (SMILES): Cc1ccc(C(=O)Nc2ccc(CN3CCN(C)CC3)c(C(F)(F)F)c2)cc1C#Cc1cnc2cccnn12 [PON]
- Average LFQ PON_WT [1]: 19.4794
- Average LFQ PON_WT [2]: 21.0941
- Average LFQ PON_WT [3]: 23.2725
- Average LFQ PON_WT [4]: 21.6692
- Average LFQ PON_WT [5]: 25.3205
- Average LFQ PON_WT [6]: 20.1604
- Average LFQ PON_WT [7]: 21.4728
- Average LFQ PON_WT [8]: 27.1637
- Average LFQ PON_WT [9]: 23.8618
- Average LFQ PON_WT [10]: 23.9529
- Average LFQ PON_WT [11]: 24.1054
- Average LFQ PON_WT [12]: 20.775
- Average LFQ PON_WT [13]: 23.2724
- Average LFQ PON_WT [14]: 21.315
- Average LFQ PON_WT [15]: 21.2631
- Average LFQ PON_WT [16]: 25.6287
- Average LFQ PON_WT [17]: 20.5709
- Average LFQ PON_WT [18]: 21.415
- Average LFQ PON_WT [19]: 21.0026
